Source: patent publication US6828316B2, “Diamide compound and medicine containing the same” (Kowa Co., Ltd., priority 1996, dated 2004)
Counter-ions that a name gives are not always drawn.

These compounds were tested on production of IgE antibody (assay: Evaluation of inhibitory effect on production of IgE antibody). Conditions: B-cell; test agent at a concentration of 10^−5 M; mouse (Balb/C) spleen B cells cultured with LPS then mouse IL-4; IgE in culture supernatant by ELISA.
Format: cell-based
Description: Evaluation of Inhibitory Effect on Production of IgE Antibody
A spleen was enucleated from a mouse (Balb/C, male, aged 8 weeks) and shredded in 0.3% BSA/HBSS to prepare single cells by means of a 200-mesh screen. Further, the single cells were hemolyzed by 0.75% ammonium chloride-17 mM Tris solution to prepare a splenocyte suspension (1×10^7/ml) using RPMI 1640 medium/25 mM HPES/0.3% BSA. After the suspension was reacted with a mouse anti-mouse Thy-1.2 monoclonal antibody at 4° C. for 1 hour, the reaction mixture was centrifuged, and the sediment cells were suspended again (1×10^7/ml, RPMI/HPES/BAS). After the suspension was then reacted with a low-cytotoxic rabbit complement (product of Cedarlane Co.) at 37° C. for 1 hour, killed cells were removed by specific gravity centrifugation using lympholyte M (product of Cedarlane Co.) to obtain a B cell fraction as viably cells.
After B cells (10^5/0.2 ml/well) were cultured for a day together with LPS (E. coli 026:B6, product of DIFCO Co.) using a 96-well plate, mouse IL-4 (product of Genzyme Co.) was added to conduct culture further for 7 days.
Each test agent was added on the first day of the culture, and the amount of IgE in a culture supernatant was measured by ELISA, thereby calculating out the inhibitory effect of the agent on the production of an IgE antibody.
Work on O=C(/C=C/C=C/c1ccccc1)N1CCCN(C(=O)/C=C/C=C/c2ccccc2)CC1 [Example 1, 1,4-bis[5-phenylpenta-(2E,4E)-dienoyl]hexahydro-1,4-diazepine] yielded an inhibition at 10 µM of 100%. With COc1cc(/C=C/C=C/C(=O)N2CCCN(C(=O)/C=C/C=C/c3cc(OC)c(OC)c(OC)c3)CC2)cc(OC)c1OC [Example 17, 1,4-bis[5-(3,4,5-trimethoxyphenyl)-penta-(2E,4E)-dienoyl]hexahydro-1,4-diazepine] the inhibition at 10 µM was 100%. Compound O=C(/C=C/C=C/c1ccccn1)N1CCCN(C(=O)/C=C/C=C/c2ccccn2)CC1 [Example 19, 1,4-bis[5-(2-pyridyl)penta-(2E,4E)-dienoyl]hexahydro-1,4-diazepine] has an inhibition at 10 µM of 20%. For O=C(/C=C/C=C/c1cccc2cccnc12)N1CCCN(C(=O)/C=C/C=C/c2cccc3cccnc23)CC1 [Example 25, 1,4-bis[5-(8-quinolyl)penta-(2E,4E)-dienoyl]hexahydro-1,4-diazepine], the inhibition at 10 µM was 100%. Compound COc1cc(/C=C/C=C/C(=O)N2CCN(C(=O)/C=C/C=C/c3cc(OC)c(OC)c(OC)c3)CC2)cc(OC)c1OC [Example 29, 1,4-bis[5-(3,4,5-trimethoxyphenyl)-penta-(2E,4E)-dienoyl]piperazine] has an inhibition at 10 µM of 100%. In the case of O=C(/C=C/C=C/c1cccc2cccnc12)N1CCN(C(=O)/C=C/C=C/c2cccc3cccnc23)CC1 [Example 32, 1,4-bis[5-(8-quinolyl)penta-(2E,4E)-dienoyl]piperazine], the inhibition at 10 µM was 85%. In the case of COc1cc(/C=C/C=C/C(=O)N2CCN(C(=O)/C=C/C=C/c3cc(OC)c(OC)c(OC)c3)C(C(=O)O)C2)cc(OC)c1OC (stereo not shown) [Example 34, 1,4-bis[5-(3,4,5-trimethoxyphenyl)-penta-(2E,4E)-dienoyl]piperazine-2-carboxylic acid], the inhibition at 10 µM was 90%. For COc1cc(/C=C/C=C/C(=O)N2CCN(C(=O)/C=C/C=C/c3cc(OC)c(OC)c(OC)c3)C(CN(C)C)C2)cc(OC)c1OC (stereo not shown) [Example 36, 1,4-bis[5-(3,4,5-trimethoxyphenyl)-penta-(2E,4E)-dienoyl]-2-(N,N-dimethylaminomethyl)-piperazine hydrochloride], the inhibition at 10 µM was 100%. COc1cc(/C=C/C=C/C(=O)N2CCN(C(=O)/C=C/C=C/c3cc(OC)c(OC)c(OC)c3)c3ccccc32)cc(OC)c1OC [Example 41, 1,4-bis[5-(3,4,5-trimethoxyphenyl)-penta-(2E,4E)-dienoyl]-1,2,3,4-tetrahydroquinoxaline] showed an inhibition at 10 µM of 100%. Work on COc1cc(/C=C/C=C/C(=O)N2CCN(C(=O)/C=C/C=C/c3cc(OC)c(OC)c(OC)c3)c3ncccc32)cc(OC)c1OC [Example 42, 1,4-bis[5-(3,4,5-trimethoxyphenyl)-penta-(2E,4E)-dienoyl]-pyrido[2,3-b]-1,2,3,4-tetrahydropyrazine] yielded an inhibition at 10 µM of 95%.
